From article PMC7828477, “Synthesis and Evaluation of Novel Iminosugars Prepared from Natural Amino Acids” (Molecules, 2021)
Structures can show the parent of a compound that is named as a salt.

Legend:
Experiment in all cases: p-nitrophenyl glycoside hydrolysis, A405, […] min
Type in all cases: biochemical
[1] = target: T1, α-L-fucosidase from Homo sapiens (Homo sapiens, UniProt P04066); conditions: read-out: α-L-Fuc
T1 construct: gene FUCA1
T1 sequence (P04066 32-466): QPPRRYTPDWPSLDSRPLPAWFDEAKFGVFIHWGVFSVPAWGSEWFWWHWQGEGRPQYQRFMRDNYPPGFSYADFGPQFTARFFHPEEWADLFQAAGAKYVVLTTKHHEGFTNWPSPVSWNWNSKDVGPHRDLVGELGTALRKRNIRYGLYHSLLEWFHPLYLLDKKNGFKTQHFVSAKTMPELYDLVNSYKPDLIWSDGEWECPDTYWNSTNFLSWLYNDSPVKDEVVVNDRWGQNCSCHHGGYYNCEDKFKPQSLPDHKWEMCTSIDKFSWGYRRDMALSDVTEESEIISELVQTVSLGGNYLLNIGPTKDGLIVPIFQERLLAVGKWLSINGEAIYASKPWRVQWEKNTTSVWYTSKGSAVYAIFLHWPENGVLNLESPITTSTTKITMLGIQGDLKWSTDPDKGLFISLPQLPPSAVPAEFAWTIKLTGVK

[2] = target: α-galactosidase from Green coffee (Coffea arabica, UniProt Q42656); conditions: read-out: α-Gal
[3] = target: T2, β-galactosidase from Escherichia coli (Escherichia coli, UniProt P00722); conditions: read-out: β-Gal
T2 construct: gene lacZ
T2 sequence (P00722 2-1024): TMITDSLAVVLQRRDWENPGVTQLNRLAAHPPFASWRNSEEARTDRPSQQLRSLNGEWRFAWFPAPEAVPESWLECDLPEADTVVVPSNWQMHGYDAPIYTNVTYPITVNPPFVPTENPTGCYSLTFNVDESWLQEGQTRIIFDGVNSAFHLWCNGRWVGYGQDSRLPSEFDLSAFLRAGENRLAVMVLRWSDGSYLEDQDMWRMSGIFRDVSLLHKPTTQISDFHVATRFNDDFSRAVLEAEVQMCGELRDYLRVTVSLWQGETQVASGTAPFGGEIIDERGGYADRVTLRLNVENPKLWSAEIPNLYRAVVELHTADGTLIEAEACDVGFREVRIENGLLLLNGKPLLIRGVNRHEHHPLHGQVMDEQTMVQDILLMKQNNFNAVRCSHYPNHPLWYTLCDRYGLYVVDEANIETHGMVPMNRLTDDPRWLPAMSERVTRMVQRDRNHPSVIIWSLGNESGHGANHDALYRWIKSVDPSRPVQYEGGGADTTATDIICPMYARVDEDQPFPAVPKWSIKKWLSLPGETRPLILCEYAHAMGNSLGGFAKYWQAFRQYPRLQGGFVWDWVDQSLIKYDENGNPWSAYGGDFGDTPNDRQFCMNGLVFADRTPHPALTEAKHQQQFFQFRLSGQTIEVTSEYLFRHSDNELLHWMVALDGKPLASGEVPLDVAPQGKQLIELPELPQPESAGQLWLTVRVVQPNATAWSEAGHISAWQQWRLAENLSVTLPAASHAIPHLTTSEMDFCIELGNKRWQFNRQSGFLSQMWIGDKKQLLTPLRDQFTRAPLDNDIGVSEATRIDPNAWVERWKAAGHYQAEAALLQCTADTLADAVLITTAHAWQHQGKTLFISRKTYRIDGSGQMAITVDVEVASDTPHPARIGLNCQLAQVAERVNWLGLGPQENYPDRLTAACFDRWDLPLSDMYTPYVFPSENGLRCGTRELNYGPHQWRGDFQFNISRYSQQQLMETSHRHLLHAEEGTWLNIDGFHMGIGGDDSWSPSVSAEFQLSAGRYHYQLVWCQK

Sequence of α-galactosidase from Green coffee (Q42656 16-378): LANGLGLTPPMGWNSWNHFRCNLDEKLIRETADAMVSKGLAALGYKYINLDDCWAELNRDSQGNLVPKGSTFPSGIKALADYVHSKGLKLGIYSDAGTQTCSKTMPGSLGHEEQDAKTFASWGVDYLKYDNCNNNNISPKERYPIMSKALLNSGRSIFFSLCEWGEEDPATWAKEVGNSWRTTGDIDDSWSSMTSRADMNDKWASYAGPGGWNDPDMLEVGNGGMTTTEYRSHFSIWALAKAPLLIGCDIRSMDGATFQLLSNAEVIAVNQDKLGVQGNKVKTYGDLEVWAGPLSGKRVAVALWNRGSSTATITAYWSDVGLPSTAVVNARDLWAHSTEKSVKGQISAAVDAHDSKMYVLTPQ

C[C@@H]1NC[C@H]2[C@H](CO)[C@H]2[C@H]1O [6b, (1S,4S,5R,6S,7S)-7-(hydroxymethyl)-4-methyl-3-azabicyclo[4.1.0]heptan-5-ol]
activity at 5000 µM [1]: 142%

O=C(O)[C@H]1[C@@H]2CN[C@@H](CO)[C@@H](O)[C@@H]21 [10a, (1R,4S,5S,6S,7S)-7-carboxy-5-hydroxy-4-(hydroxymethyl)-3-azabicyclo[4.1.0]heptan-3-ium trifluoroacetate]
activity at 5000 µM [2]: 154%

OC[C@@H]1[C@@H]2CN[C@@H](CO)[C@@H](O)[C@H]12 [11b]
activity at 5000 µM [3]: 25%
